Laboratory results published in patent US20240116923A1, “USE OF INDOLE, 6- AND 7-AZAINDOLE DERIVATIVES AS INHIBITORS OF FERROPTOSIS REGULATED CELL DEATH” (Seabelife, priority 2021, published 2024).

B1: BDNF: Brain Derived Neurotrophic Factor, reference compound at 50 ng/mL (protein, UniProt P23560 19-247, looked up)
Neurotrophic factor BDNF …: APMKEANIRGQGGLAYPGVRTHGTLESVNGPKAGSRGLTSLADTFEHVIEELLDEDQKVRPNEENNKDADLYTSRVMLSSQVPLEPPLLFLLEEYKNYLDAANMSMRVRRHSDPARRGELSVCDSISEWVTAADKKTAVDMSGGTVTVLEKVPVSKGQLKQYFYETKCNPMGYTKEGCRGIDKRHWNSQCRTTQSYVRALTMDSKKRIGWRFIRIDTSCVCTLTIKRGR

Tested on: Rat dopaminergic neurons
Assay: Protective effect after 6-OHDA injury on rat primary dopaminergic neurons survival (TH staining)
Type: cell-based
Conditions: p<0.0001
Procedure: As explained in Ding et al., J Neurochem., 2004, (89), administration of 6-Hydroxydopamine (6-OHDA), a neurotoxin, has been widely used to cause the selective degeneration of dopamine (DA) neurons in in vitro and in vivo models. These models are used as Parkinson's disease models, which is characterized by the progressive loss of DA neurons of the substantia nigra.
Rat dopaminergic neurons were cultured as described by Schinelli et al., J Neurochem., 1988, 50(6). The cells were seeded at a density of 40 000 cells/well in 96 well-plates (precoated with poly-D-lysine; Greiner, Ref: 655940, Batch: E20093UL) and were cultured at 37° C. in a humidified air (95%)/CO2 (5%) atmosphere. Half of the medium was changed every 2 days with fresh medium. In these conditions, after 5 days of culture, astrocytes are present in the culture and release growth factor allowing neurons differentiation. In this condition, 2 to 5% of neurons are dopaminergic neurons.
6-OHDA (Sigma, Ref: 162957, Batch MKCK5243) was reconstituted in define culture medium at 40 μM (stock solution). The control medium was prepared in the same conditions. After 7 days of culture, primary mesencephalic neurons were pre-treated for 1 hour with test compounds or reference compound (BDNF, 50 ng/mL) and then intoxicated with 6-OHDA at a final concentration of 20 μM for 2 days incubation in order to induce a neuronal cell death of about 50%+/−5%.
After 2 days of intoxication in presence or absence of test compounds, cells were fixed by a solution of 4% paraformaldehyde (Sigma, ref 6148, Batch: SZBE2390V) for 20 min at room temperature, the control conditions were fixed as well following the same procedure. The cells were then permeabilized and nonspecific sites were blocked with a solution of phosphate buffered saline (PBS; PanBiotech; ref: P04-36500, Batch: 7701020) containing 0.1% of saponin (Sigma; ref: S7900, Batch: BCBL8667V) and 1% FCS for 15 min at room temperature. Cells were incubated with a mouse monoclonal anti-Tyrosine Hydroxylase (TH, 1/10 000, Sigma; ref: T1299, Batch: 014M4835) antibody in a solution of PBS overnight at 4° C. Antibody against TH stained dopaminergic neurons. […] Nuclei of cells were labelled by a fluorescent marker (Hoechst, Sigma; ref: B1155, Batch: 046M4048V) in the same solution. For each condition, 20 pictures per well were taken using InCell Analyzer™ 2200 (GE Healthcare) with 20× magnification. Images of each culture well were taken in same condition. Analysis of cell bodies of TH positive neurons was performed using Developer software (GE healthcare). A total of 6 data per experimental condition were provided.

Row | Molecule | cellular death of dopaminergic neurons (6-OHDA 20 μM alone, 2 days) | cellular death of dopaminergic neurons after 6-OHDA injury (50 ng/mL, 1 h pre-treatment, 6-OHDA 20 μM 2 days (6-OHDA alone 48%))
1 | NCCc1cc(O)c(O)cc1O [Compound 6-OHDA, 6-hydroxydopamine, reference compound] | 48% | –
2 | B1 | – | 15%
